# Experimental data published in ChEMBL document CHEMBL1201862, “PubChem BioAssay data set” (2004).
#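 Exposure lasted 48 hours, with cells grown in 96-well plates and compounds tested at five concentrations. GI50 is the concentration that inhibits growth by half.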 The source made the active and inactive calls. No stated cut-off is given here; in the data, active = GI50 up to about 1.1 µM and inactive = higher.
# Assays:
# Assay in all cases: NCI anticancer screen, dose series, 48 h
# [1] = tested on: HCC 2998
# [2] = tested on: ACHN
# [3] = tested on: M19-MEL
# [4] = tested on: UACC-62
# [5] = tested on: UO-31
# [6] = tested on: SN12C
# [7] = tested on: NCI-H460
# [8] = tested on: SF-295
# [9] = tested on: M14
# [10] = tested on: DLD-1
# [11] = tested on: A498
# [12] = tested on: SK-MEL-28
# [13] = tested on: SK-MEL-5
# [14] = tested on: SNB-19
# [15] = tested on: KM-20L2
# [16] = tested on: HT-29
# [17] = tested on: RPMI-8226
# [18] = tested on: SF-268
# [19] = tested on: UACC-257
# [20] = tested on: KM12
# [21] = tested on: IGROV-1
# [22] = tested on: SK-OV-3
# [23] = tested on: NCI-H23
# [24] = tested on: SK-MEL-2
# [25] = tested on: XF498
# [26] = tested on: CAKI-1
# [27] = tested on: K562
# [28] = tested on: Malme-3M
# [29] = tested on: 786-0
# [30] = tested on: SW-620
# [31] = tested on: HOP-62
# [32] = tested on: OVCAR-3
# [33] = tested on: TK-10
# [34] = tested on: HCT-15
# [35] = tested on: SNB-78
# [36] = tested on: EKVX
# [37] = tested on: SF-539
# [38] = tested on: MOLT-4
# [39] = tested on: A549
# [40] = tested on: LOX IMVI
# [41] = tested on: OVCAR-4
# [42] = tested on: OVCAR-5
# [43] = tested on: COLO 205
# [44] = tested on: U-251
# [45] = tested on: DMS-273
# [46] = tested on: LXFL 529
# [47] = tested on: SNB-75
# [48] = tested on: CCRF-CEM
# [49] = tested on: OVCAR-8
# [50] = tested on: SR
# [51] = tested on: RXF 393
# [52] = tested on: NCI-H522
# [53] = tested on: HCT-116
# [54] = tested on: NCI-H226
# [55] = tested on: DMS-114
# [56] = tested on: HOP-92
# [57] = tested on: HOP-18
# [58] = tested on: HL-60
smiles,measurement,setting,value
NC1=NC(=O)C(CC(=O)Nc2ccc(Cl)cc2Cl)S1 (stereo not drawn),GI50,[1],> 100 µM (inactive)
same,GI50,[2],> 100 µM (inactive)
same,GI50,[3],> 100 µM (inactive)
same,GI50,[4],> 100 µM (inactive)
same,GI50,[5],> 100 µM (inactive)
same,GI50,[6],> 100 µM (inactive)
same,GI50,[7],> 100 µM (inactive)
same,GI50,[8],> 100 µM (inactive)
same,GI50,[9],> 100 µM (inactive)
same,GI50,[10],> 100 µM (inactive)
same,GI50,[11],57.4 µM (inactive)
same,GI50,[12],> 100 µM (inactive)
same,GI50,[13],> 100 µM (inactive)
same,GI50,[14],> 100 µM (inactive)
same,GI50,[15],> 100 µM (inactive)
same,GI50,[16],> 100 µM (inactive)
same,GI50,[17],> 100 µM (inactive)
same,GI50,[18],> 100 µM (inactive)
same,GI50,[19],> 100 µM (inactive)
same,GI50,[20],> 100 µM (inactive)
same,GI50,[21],> 100 µM (inactive)
same,GI50,[22],> 100 µM (inactive)
same,GI50,[23],> 100 µM (inactive)
same,GI50,[24],> 100 µM (inactive)
same,GI50,[25],> 100 µM (inactive)
same,GI50,[26],> 100 µM (inactive)
same,GI50,[27],> 100 µM (inactive)
same,GI50,[28],> 100 µM (inactive)
same,GI50,[29],> 100 µM (inactive)
same,GI50,[30],> 100 µM (inactive)
same,GI50,[31],> 100 µM (inactive)
same,GI50,[32],> 100 µM (inactive)
same,GI50,[33],> 100 µM (inactive)
same,GI50,[34],> 100 µM
same,GI50,[35],> 100 µM (inactive)
same,GI50,[36],> 100 µM (inactive)
same,GI50,[37],> 100 µM (inactive)
same,GI50,[38],48.4 µM (inactive)
same,GI50,[39],> 100 µM (inactive)
same,GI50,[40],> 100 µM (inactive)
same,GI50,[41],> 100 µM (inactive)
same,GI50,[42],> 100 µM (inactive)
same,GI50,[43],> 100 µM (inactive)
same,GI50,[44],> 100 µM (inactive)
same,GI50,[45],> 100 µM (inactive)
same,GI50,[46],> 100 µM (inactive)
same,GI50,[47],> 100 µM (inactive)
same,GI50,[48],5.13 µM (inactive)
same,GI50,[49],> 100 µM (inactive)
C=CCN1C(=O)NC(=O)/C(=C/c2c3ccccc3cc3ccccc23)C1=O,GI50,[1],14.8 µM (inactive)
same,GI50,[3],34.4 µM (inactive)
same,GI50,[4],18 µM (inactive)
same,GI50,[5],20.6 µM (inactive)
same,GI50,[7],19.1 µM (inactive)
same,GI50,[50],23.9 µM (inactive)
same,GI50,[8],17.4 µM (inactive)
same,GI50,[9],16.2 µM (inactive)
same,GI50,[10],18.9 µM (inactive)
same,GI50,[12],22.4 µM (inactive)
same,GI50,[13],> 10 µM (inactive)
same,GI50,[51],15.3 µM (inactive)
same,GI50,[52],20.2 µM (inactive)
same,GI50,[14],21.8 µM (inactive)
same,GI50,[16],20.7 µM (inactive)
same,GI50,[18],24.5 µM (inactive)
same,GI50,[20],16.2 µM (inactive)
same,GI50,[21],> 10 µM (inactive)
same,GI50,[22],29.9 µM (inactive)
same,GI50,[23],> 10 µM (inactive)
same,GI50,[24],19.6 µM (inactive)
same,GI50,[25],21.8 µM (inactive)
same,GI50,[26],19.5 µM (inactive)
same,GI50,[27],20.8 µM (inactive)
same,GI50,[28],18.6 µM (inactive)
same,GI50,[30],35.7 µM (inactive)
same,GI50,[53],17.1 µM (inactive)
same,GI50,[31],17.3 µM (inactive)
same,GI50,[54],26.3 µM (inactive)
same,GI50,[32],18.9 µM (inactive)
same,GI50,[33],20 µM (inactive)
same,GI50,[35],21.1 µM (inactive)
same,GI50,[36],25.5 µM (inactive)
same,GI50,[37],16.7 µM (inactive)
same,GI50,[38],17.9 µM (inactive)
same,GI50,[55],19.1 µM (inactive)
same,GI50,[39],21 µM (inactive)
same,GI50,[40],27.6 µM (inactive)
same,GI50,[41],22.2 µM (inactive)
same,GI50,[42],20.5 µM (inactive)
same,GI50,[43],19.9 µM (inactive)
same,GI50,[44],16.7 µM (inactive)
same,GI50,[45],20.8 µM (inactive)
same,GI50,[56],20.4 µM (inactive)
same,GI50,[47],21.3 µM (inactive)
same,GI50,[48],26.3 µM (inactive)
same,GI50,[49],22.4 µM (inactive)
COc1ccc2c(=O)oc3c(OC)cc(CCN(C)C)c4c(=O)oc1c2c34,GI50,[1],12.4 µM (inactive)
same,GI50,[3],14.5 µM (inactive)
same,GI50,[4],17.9 µM (inactive)
same,GI50,[6],13.8 µM (inactive)
same,GI50,[9],17.4 µM (inactive)
same,GI50,[10],22.8 µM (inactive)
same,GI50,[11],20.5 µM (inactive)
same,GI50,[13],12.3 µM (inactive)
same,GI50,[52],12.5 µM (inactive)
same,GI50,[14],14.3 µM (inactive)
same,GI50,[15],14.9 µM (inactive)
same,GI50,[18],12.9 µM (inactive)
same,GI50,[57],14.4 µM (inactive)
same,GI50,[23],17.8 µM (inactive)
same,GI50,[24],17.7 µM (inactive)
same,GI50,[27],2.56 µM (inactive)
same,GI50,[28],14.5 µM (inactive)
same,GI50,[31],14.2 µM (inactive)
same,GI50,[54],17.9 µM (inactive)
same,GI50,[32],16.1 µM (inactive)
same,GI50,[35],14.3 µM (inactive)
same,GI50,[38],11.5 µM (inactive)
same,GI50,[55],12.1 µM (inactive)
same,GI50,[42],17.9 µM (inactive)
same,GI50,[43],4.94 µM (inactive)
same,GI50,[44],14.4 µM (inactive)
same,GI50,[45],15.6 µM (inactive)
same,GI50,[46],13.3 µM (inactive)
same,GI50,[48],1.49 µM (inactive)
same,GI50,[49],10.4 µM (inactive)
O=Cc1cc2c(cc1-c1cc3c(cc1C=O)OCO3)OCO2,GI50,[1],> 100 µM (inactive)
same,GI50,[2],71.8 µM (inactive)
same,GI50,[3],56.8 µM (inactive)
same,GI50,[4],> 100 µM (inactive)
same,GI50,[5],71.6 µM (inactive)
same,GI50,[6],> 100 µM (inactive)
same,GI50,[7],> 100 µM (inactive)
same,GI50,[50],21 µM (inactive)
same,GI50,[8],> 100 µM (inactive)
same,GI50,[9],> 100 µM (inactive)
same,GI50,[10],50.4 µM (inactive)
same,GI50,[11],> 100 µM (inactive)
same,GI50,[12],95.1 µM (inactive)
same,GI50,[13],> 100 µM (inactive)
same,GI50,[51],37.3 µM (inactive)
same,GI50,[52],64.1 µM (inactive)
same,GI50,[14],87.9 µM (inactive)
same,GI50,[15],> 100 µM (inactive)
same,GI50,[16],90.2 µM (inactive)
same,GI50,[17],30.3 µM (inactive)
same,GI50,[18],> 100 µM (inactive)
same,GI50,[57],> 100 µM (inactive)
same,GI50,[19],> 100 µM (inactive)
same,GI50,[20],83 µM (inactive)
same,GI50,[21],> 100 µM (inactive)
same,GI50,[22],> 100 µM (inactive)
same,GI50,[23],72.4 µM (inactive)
same,GI50,[24],> 100 µM (inactive)
same,GI50,[26],66.2 µM (inactive)
same,GI50,[27],30.8 µM (inactive)
same,GI50,[28],> 100 µM (inactive)
same,GI50,[29],> 100 µM (inactive)
same,GI50,[30],55.8 µM (inactive)
same,GI50,[53],58.7 µM (inactive)
same,GI50,[31],> 100 µM (inactive)
same,GI50,[54],> 100 µM (inactive)
same,GI50,[32],55.6 µM (inactive)
same,GI50,[33],> 100 µM (inactive)
same,GI50,[34],70.3 µM
same,GI50,[35],> 100 µM (inactive)
same,GI50,[36],> 100 µM (inactive)
same,GI50,[37],> 100 µM (inactive)
same,GI50,[38],45.5 µM (inactive)
same,GI50,[55],> 100 µM (inactive)
same,GI50,[39],50.4 µM (inactive)
same,GI50,[40],23.3 µM (inactive)
same,GI50,[41],> 100 µM (inactive)
same,GI50,[42],> 100 µM (inactive)
same,GI50,[43],39.5 µM (inactive)
same,GI50,[44],> 100 µM (inactive)
same,GI50,[45],64.3 µM (inactive)
same,GI50,[46],> 100 µM (inactive)
same,GI50,[58],34.1 µM (inactive)
same,GI50,[56],> 100 µM (inactive)
same,GI50,[47],> 100 µM (inactive)
same,GI50,[48],23.4 µM (inactive)
same,GI50,[49],> 100 µM (inactive)
